Several values for one entry are separate records, joined by “and”; a condition that tells them apart may be missing. Equal values may be shown once.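 Tested at 5 concentrations; 48 h exposure; 96-well plates; endpoints linearly interpolated, else capped at highest concentration. The concentration for 50% growth inhibition is given as GI50. TGI: concentration producing complete growth inhibition.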
Key:
Experiment in all cases: DTP human tumour cell line panel, 48 h
[1] = test system: SK-OV-3 ovarian
[2] = test system: CCRF-CEM leukemia
[3] = test system: NCI-H226 lung
[4] = test system: SF-539 CNS
[5] = test system: MCF7 breast
[6] = test system: HCC-2998 colon
[7] = test system: MDA-MB-435
[8] = test system: SNB-75 CNS
[9] = test system: UACC-257 melanoma
[10] = test system: MALME-3M melanoma

For O=P1(NCCCl)OCCC(OO)N1CCCl (stereo not given), the TGI [1] was > 100 µM, the TGI [2] was > 52.7 µM and the TGI [3] was > 100 µM. The TGI [4] was 33 µM, the TGI [5] was > 100 µM and the TGI [6] was > 100 µM. The TGI [7] was > 100 µM, the TGI [8] was 97 µM and the TGI [9] was > 82.6 µM. For the same compound, the TGI [10] was 31.7 µM.

In the case of COc1nc(C(Cl)(Cl)Cl)c(Cl)c(OC)c1Cl, the GI50 [1] is reported as > 64.2 µM, the TGI [1] is reported as 26.9 µM and the GI50 [2] is reported as > 45.5 µM. The TGI [2] was > 64.4 µM and 121 µM, the TGI [3] was 71.5 µM and the GI50 [4] was > 52 µM. For the same compound, the TGI [4] was > 86.8 µM and 77.2 µM, the TGI [5] was 66.8 µM and the TGI [6] was > 58.3 µM and 95 µM. For the same compound, the TGI [7] was 79.7 µM, the TGI [8] was 55.6 µM and the GI50 [9] was > 50.9 µM. For the same compound, the TGI [9] was > 72.9 µM and 79.7 µM, the GI50 [10] was > 45.4 µM and the TGI [10] was > 65.8 µM and 64.4 µM.

Reference: PubChem BioAssay (NCI)
